Source: PubChem BioAssay (NCI)
“And” between values parts separate entries of the source, which are not always exact repeats. Equal entries are not always repeated.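 96-well plates; 48 h exposure; 5 concentrations. Endpoints by linear interpolation between flanking doses. Not reached: highest tested concentration assigned. At the GI50, growth is halved. TGI denotes the concentration required for complete inhibition of growth.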 Where a SMILES comes first, the peptide text is derived from it. The star is where a group is joined. Trt = c1ccc(C(c2ccccc2)(c2ccccc2)*)cc1; Cbz = O=C(OCc1ccccc1)*

Experiments:
Assay in all cases: NCI anticancer screen, dose series, 48 h
HCT-116 colon = system: HCT-116 colon
HCT-15 colon = system: HCT-15 colon
OVCAR-8 ovarian = system: OVCAR-8 ovarian
NCI-H226 lung = system: NCI-H226 lung
LOX IMVI melanoma = system: LOX IMVI melanoma
CAKI-1 renal = system: CAKI-1 renal
HCC-2998 colon = system: HCC-2998 colon
COLO 205 colon = system: COLO 205 colon
NCI-H460 lung = system: NCI-H460 lung
MOLT-4 leukemia = system: MOLT-4 leukemia

Compound	GI50 (HCT-116 colon)	TGI (HCT-116 colon) [µM]	GI50 (HCT-15 colon)	TGI (HCT-15 colon) [µM]	GI50 (OVCAR-8 ovarian) [µM]	TGI (OVCAR-8 ovarian)	GI50 (NCI-H226 lung)	TGI (NCI-H226 lung)	GI50 (LOX IMVI melanoma)	TGI (LOX IMVI melanoma)	GI50 (CAKI-1 renal)	TGI (CAKI-1 renal) [µM]	GI50 (HCC-2998 colon)	TGI (HCC-2998 colon)	GI50 (COLO 205 colon) [µM]	TGI (COLO 205 colon) [µM]	GI50 (NCI-H460 lung) [µM]	TGI (NCI-H460 lung)	GI50 (MOLT-4 leukemia) [µM]	TGI (MOLT-4 leukemia)
CCOCC1(COCC)CCC(c2[nH]ncc2CN(C)CCNC)CC1	> 100 µM	> 100	> 100 µM	> 100	> 100	> 100 µM	> 100 µM	> 100 µM	> 100 µM	> 100 µM	> 100 µM	> 100	> 100 µM	> 100 µM	> 100	> 100	> 100	> 100 µM	> 100	> 100 µM
CN=C(N)c1ccc(N=C(N)c2ccc(-c3ccc(C(N)=Nc4ccc(C(N)=NC)cc4)cc3)cc2)cc1	75.8 µM	> 100	> 100 µM	> 100	52.1	> 100 µM	55.9 µM	> 100 µM	83 µM	> 100 µM	> 100 µM	> 100	> 100 µM	> 100 µM	99.5	> 100	55.8	> 100 µM	> 100	> 100 µM
Cc1ccc(NC(=O)CCCC(=O)CC(=O)c2ccc(Br)cc2)cc1		> 100		> 100		> 100 µM		> 100 µM		> 100 µM		> 100		> 100 µM		> 100		> 100 µM		> 100 µM
CC(=O)OCC1OC(n2c(=S)n(-c3ccc([N+](=O)[O-])cc3)c(=O)c3ccccc32)C(OC(C)=O)C(OC(C)=O)C1OC(C)=O (stereo not given)	18.1 µM and 25.2 µM	> 100		> 100		63.5 µM and 47.6 µM	10.1 µM and 20.4 µM	58.4 µM and 49 µM		51.8 µM and 31.5 µM	25.3 µM and 35.9 µM	> 100	26.8 µM and 20.8 µM	61.4 µM and 46.6 µM	31.2	> 100		> 69.8 µM and 68.2 µM		> 95.1 µM
CC(C)=CCc1cc2c(cc1O)C1=C(C(=O)C3=C(C1=O)S(=O)(=O)CCN3)C(C=C(C)C)O2 (stereo not given)	0.474 µM	1.77	1.77 µM	4.3	0.552	2.12 µM	1.6 µM	5.22 µM	0.492 µM	2.06 µM			1.48 µM	3.84 µM	0.64	2.41	0.454	2.3 µM	0.718	3.99 µM
CN1CCN(CC(=O)N(C)c2ccc(N=C(c3ccccc3)c3c(O)[nH]c4ccc(C#N)cc34)cc2)CC1	1.02 µM	2.47	3.55 µM	14.9	4.87	> 100 µM	3.19 µM	16 µM	1.08 µM	2.58 µM	1.26 µM	8.96	3.38 µM	13.4 µM	0.528	12.4	1.38	3.25 µM	0.601	9.38 µM
C=C1C[C@H]2C=Nc3cc(OCCCOc4cc5c(cc4OC)C(=O)N4CC(=C)C[C@H]4C=N5)c(OC)cc3C(=O)N2C1			0.0231 µM			> 18.4 µM		0.0482 µM			0.0113 µM			0.0143 µM	0.00546	0.0343	0.000277	0.544 µM		0.00105 µM
COc1ccc2c(c1)OC(N)=C(C#N)C2c1cc(OC)c(OC)c(OC)c1 (stereo not given)	0.0331 µM	> 37.5	0.034 µM	> 100	0.0355	> 70.2 µM	0.0573 µM	> 100 µM	0.0346 µM	> 100 µM	0.107 µM	> 100	0.0398 µM	> 100 µM	0.0244	0.061	0.0345		0.0365	> 100 µM
COC(=O)CCSC(=O)Nc1ccc(N=Nc2ccccc2)cc1		> 100		> 100		> 100 µM		> 100 µM		> 100 µM		> 100		59 µM		47.7		> 100 µM		> 100 µM
N#CCn1c(=O)c(Oc2ccc(F)cc2F)cc2cnc(NC3CCOCC3)nc21	> 25 µM	> 25	> 25 µM	> 25	> 25	> 25 µM	> 25 µM	> 25 µM	> 25 µM	> 25 µM	> 25 µM	> 25	> 25 µM	> 25 µM	> 25	> 25	> 25	> 25 µM	> 25	> 25 µM
Cc1ccc(C(=O)CC2(O)C(=O)Nc3c(C)cc(Cl)cc32)cc1 (stereo not given)				> 100		> 100 µM		> 100 µM		> 100 µM		> 100		> 100 µM		> 100		> 100 µM		> 100 µM
COC(=O)C(CO)NC(=O)C(CSC(c1ccccc1)(c1ccccc1)c1ccccc1)NC(=O)OCc1ccccc1 (stereo not given) (Cbz-Cys(Trt)-Ser-OMe; configuration not given here)		42.1		> 52.9		36.5 µM		26.4 µM		30.1 µM		39.4		29 µM		32.4		33.6 µM		> 32.1 µM
O=C1NC(=NCCc2ccc(F)cc2)S/C1=C\c1ccc2ncccc2c1	13.8 µM	> 25	> 25 µM	> 25	> 25	> 25 µM	> 25 µM	> 25 µM	> 25 µM	> 25 µM	> 25 µM	> 25	> 25 µM	> 25 µM	> 25	> 25	> 25	> 25 µM	> 25	> 25 µM
c1cc(N[C@@H]2CCNC2)nc(-c2cnc3ccc(-c4cn[nH]c4)cn23)c1	3.43 µM	> 100	> 100 µM	> 100	6.47	> 92.8 µM	4.13 µM	> 100 µM	3.24 µM	15.1 µM	> 47.9 µM	> 100	9.95 µM	35.5 µM	3.46	9.85	16.7	80.3 µM	4.39	51.6 µM
COc1ccc(C(O)c2cc3c(N)c(C(=O)Nc4ccc(Cl)cc4)sc3nc2C)cc1 (stereo not given)	2.01 µM	14.3	0.719 µM	12.9	4.02	26.7 µM	2.85 µM	9.47 µM	2.08 µM	13.2 µM	2.79 µM	15.6	3.04 µM	20.8 µM	3.99	23	2.3	6.25 µM	3.09	> 100 µM
Clc1nccc2c(-c3csc(-c4c[nH]c5ccc(Br)cc45)n3)c[nH]c12	2.35 µM	10.5	1.4 µM	3.33	3.65	16.2 µM	2.4 µM	13.8 µM	1.63 µM	3.25 µM	1.96 µM	8.04	2.22 µM	4.4 µM	1.8	5.61	2.16	4.58 µM	3.02	13.9 µM

Compound	GI50 (HCT-116 colon)	TGI (HCT-116 colon) [µM]	GI50 (HCT-15 colon)	TGI (HCT-15 colon) [µM]	GI50 (OVCAR-8 ovarian) [µM]	TGI (OVCAR-8 ovarian)	GI50 (NCI-H226 lung)	TGI (NCI-H226 lung)	GI50 (LOX IMVI melanoma)	TGI (LOX IMVI melanoma)	GI50 (CAKI-1 renal)	TGI (CAKI-1 renal) [µM]	GI50 (HCC-2998 colon)	TGI (HCC-2998 colon)	GI50 (COLO 205 colon) [µM]	TGI (COLO 205 colon) [µM]	GI50 (NCI-H460 lung) [µM]	TGI (NCI-H460 lung)	GI50 (MOLT-4 leukemia) [µM]	TGI (MOLT-4 leukemia)
Cc1ccc(CNc2ccc(Br)cc2)cc1		> 100		66.1		65.3 µM		> 100 µM		> 100 µM		> 100		66 µM		49.7		> 100 µM		> 100 µM
CCN1CCN(c2nc(C)cc(N(CCCNc3ccnc4cc(Cl)ccc34)Cc3ccc4c(c3)OCO4)n2)CC1	1.1 µM	3.02	1.07 µM	3.16	2.12	6.06 µM	5.36 µM	24.4 µM	1.62 µM	3.18 µM			1.62 µM	3.85 µM	1.7	3.46	1.53	3.54 µM	1.2	4.35 µM
N#CCCn1[nH]c(=O)c(Cl)c(Cl)c1=O		29.1		24.6		32.9 µM		49.4 µM		28.3 µM				26 µM		57.3		28.3 µM		37.4 µM
C[C@H]1CC[P+](Cc2ccccc2)(c2ccccc2)C1 (stereo not given in full)		> 100		> 100		> 100 µM		> 100 µM		> 100 µM				> 100 µM		> 100		> 100 µM		> 100 µM
COC1=C(N)C(=O)c2nc(-c3nc(C(=O)O)c(C)c(-c4ccc(OC)c(OC)c4O)c3N)ccc2C1=O	0.0139 µM and 0.00357 µM		0.00144 µM and 0.00832 µM and < 0.01 µM			0.00226 µM and 0.022 µM and 0.0194 µM	0.00126 µM and 0.00319 µM		0.024 µM and 0.00755 µM				0.00121 µM and 0.00468 µM							0.0805 µM and 0.0445 µM and < 0.0167 µM
COc1ccc(-c2cc(=O)c3c(O)c(OC)c(OC)c(OC)c3o2)cc1OC		> 100		> 100		> 100 µM		> 100 µM		> 100 µM		> 100		> 100 µM		> 100				> 100 µM
COC(=O)C(=O)Cc1nc2ccccc2s1		> 100		> 100		> 100 µM		> 100 µM		> 100 µM		> 100		> 100 µM		> 100				> 100 µM
C[C@@]1([C@H](OC(=O)c2ccccc2)C(N)=O)CO1	17.5 µM	58.6	20.8 µM	54.9	20.1	46.1 µM			4.21 µM	24.5 µM	10.7 µM	31.5	20.5 µM	40.3 µM	22.5	43	20.6	53 µM	35.7	> 100 µM
Nc1nncc2c1c(Br)cn2C1OC(CO)C(O)C1O (stereo not given)		> 100		> 100				> 100 µM		> 100 µM		> 100		> 100 µM		> 100		> 100 µM		> 100 µM
COC1C2C[C@@H](O)CCC2C(C(=O)OCCl)C[C@H]1O (stereo not given in full)		> 100		> 100		> 100 µM		> 100 µM				> 100		> 100 µM		> 100		> 100 µM		> 100 µM
O=[N+]([O-])c1ccc(C2=Nc3ccccc3S(=O)C(c3ccccc3)C2)cc1 (stereo not given)				76.2		> 100 µM		49.4 µM		29.3 µM		37.4		34.9 µM		40		71 µM		57.7 µM
O=C(CS(=O)(=O)c1nc2ccccc2nc1-c1ccccc1)Nc1ccc(F)cc1	25.7 µM	> 100	39.9 µM	> 100	94.3	> 100 µM	85.7 µM	> 100 µM	36.7 µM	> 100 µM	> 100 µM	> 100	13.3 µM	26.9 µM	65.1	> 100	88.8	> 100 µM		
NC(N)=N/N=C/c1c(-c2ccsc2)nc2n1CCS2	14.3 µM	27.3	24.7 µM	72.7	49	> 100 µM	13 µM	40.1 µM	16.3 µM	30.6 µM			16 µM	31.4 µM	19.8	48.5	27.9	> 100 µM	15.3	42.9 µM
C=C1C(=O)O[C@H]2[C@H]1CC/C(COC(=O)c1cc(OC)c(OC)c(OC)c1)=C\CC[C@@]1(C)O[C@@H]21	0.409 µM	1.48	0.418 µM	1.82	1.85	10.3 µM	1.4 µM	3.63 µM	1.34 µM	2.73 µM			1.92 µM	3.88 µM	1.18	3.09	2.35	6.52 µM	1.64	5.55 µM
CN=c1ss/c(=N\C(=S)N(C)C)n1C		> 100		> 100		> 100 µM		> 100 µM				> 100		> 100 µM				> 100 µM		> 100 µM
O=C(c1ccc(O)cc1O)C1C(c2ccc(O)cc2)OC(c2ccc(O)cc2)C1C(=O)c1ccc(O)cc1O (stereo not given)						56.8 µM		40.4 µM		44.2 µM		> 100		33.3 µM				> 100 µM		
